row,Structure (SMILES),melting point [°C]
1,"O=C(Nc1cccc(C(F)(F)F)c1)Nc1ccc(-c2ccc(Cl)cc2)cc1-c1nnn[nH]1 [Compound 3-2, N-(3-Trifluoromethyl-phenyl)-N′-[4′-chloro-3-(1H-tetrazol-5-yl)-biphenyl-4-yl]-urea]",253 to 254
2,"O=C(Nc1ccc(Cl)c(C(F)(F)F)c1)Nc1ccc(-c2ccc(Cl)cc2)cc1-c1nnn[nH]1 [Compound 3-3, N-(4-Chloro-3-trifluoromethyl-phenyl)-N′-[4′-chloro-3-(1H-tetrazol-5-yl)-biphenyl-4-yl]-urea]",242 to 243
3,"O=C(Nc1cc(Cl)cc(Cl)c1)Nc1ccc(-c2ccc(Cl)cc2)cc1-c1nnn[nH]1 [Compound 3-4, N-(3,5-Dichloro-phenyl)-N′-[4′-chloro-3-(1H-tetrazol-5-yl)-biphenyl-4-yl]-urea]",231 to 234
4,"O=C(Nc1cc(F)cc(F)c1)Nc1ccc(-c2ccc(Cl)cc2)cc1-c1nnn[nH]1 [Compound 3-5, N-(3,5-Difluoro-phenyl)-N′-[4′-chloro-3-(1H-tetrazol-5-yl)-biphenyl-4-yl]-urea]",250 to 251
5,"O=C(Nc1cc(Cl)cc(Cl)c1)Nc1ccc(-c2ccc(C(F)(F)F)cc2)cc1-c1nnn[nH]1 [Compound 3-6, N-(3,5-Dichloro-phenyl)-N′-[3-(1H-tetrazol-5-yl)-4′-trifluoromethyl-biphenyl-4-yl]-urea]",226 to 230
6,"O=C(Nc1cc(F)cc(F)c1)Nc1ccc(-c2ccc(C(F)(F)F)cc2)cc1-c1nnn[nH]1 [Compound 3-7, N-(3,5-Difluoro-phenyl)-N′-[3-(1H-tetrazol-5-yl)-4′-trifluoromethyl-biphenyl-4-yl]-urea]",245 to 247
7,"O=C(Nc1cc(-c2ccc(F)cc2)cc(-c2nnn[nH]2)c1)Nc1cccc(C(F)(F)F)c1 [Compound 3-8, N-(3-Trifluoromethyl-phenyl)-N′-[4′-fluoro-3-(1H-tetrazol-5-yl)-biphenyl-5-yl]-urea]",256 to 258
8,"O=C(Nc1ccc(Cl)c(C(F)(F)F)c1)Nc1ccc(-c2ccc(F)cc2)cc1-c1nnn[nH]1 [Compound 3-9, N-(4-Chloro-3-trifluoromethyl-phenyl)-N′-[4′-fluoro-3-(1H-tetrazol-5-yl)-biphenyl-4-yl]-urea]",247 to 249
9,"O=C(Nc1cc(Cl)cc(Cl)c1)Nc1ccc(-c2ccc(F)cc2)cc1-c1nnn[nH]1 [Compound 3-10, N-(3,5-Dichloro-phenyl)-N′-[4′-fluoro-3-(1H-tetrazol-5-yl)-biphenyl-4-yl]-urea]",241 to 243
10,"O=C(Nc1cc(F)cc(F)c1)Nc1ccc(-c2ccc(F)cc2)c(-c2nnn[nH]2)c1 [Compound 3-11, N-(3,5-Difluoro-phenyl)-N′-[4′-fluoro-2-(1H-tetrazol-5-yl)-biphenyl-4-yl]-urea]",255 to 256
11,"O=C(Nc1ccc(F)c(C(F)(F)F)c1)Nc1ccc(-c2ccc(C(F)(F)F)cc2)cc1-c1nnn[nH]1 [Compound 3-12, N-(4-Fluoro-3-trifluoromethyl-phenyl)-N′-[3-(1H-tetrazol-5-yl)-4′-trifluoromethyl-biphenyl-4-yl]-urea]",247 to 249
12,"O=C(Nc1cc(C(F)(F)F)cc(C(F)(F)F)c1)Nc1ccc(-c2ccc(C(F)(F)F)cc2)cc1-c1nnn[nH]1 [Compound 3-13, N-(3,5-Bis-trifluoromethyl-phenyl)-N′-[3-(1H-tetrazol-5-yl)-4′-trifluoromethyl-biphenyl-4-yl]-urea]",246 to 248
13,"O=C(Nc1cc(C(F)(F)F)cc(C(F)(F)F)c1)Nc1ccc(-c2ccc(Cl)cc2)cc1-c1nnn[nH]1 [Compound 3-14, N-(3,5-Bis-trifluoromethyl-phenyl)-N′-[4′-chloro-3-(1H-tetrazol-5-yl)-biphenyl-4-yl]-urea]",230 to 233
14,"O=C(Nc1ccc(F)c(C(F)(F)F)c1)Nc1ccc(-c2ccc(Cl)cc2)cc1-c1nnn[nH]1 [Compound 3-15, N-(4-Fluoro-3-trifluoromethyl-phenyl)-N′-[4′-chloro-3-(1H-tetrazol-5-yl)-biphenyl-4-yl]-urea]",243 to 245
15,"O=C(Nc1cc(C(F)(F)F)cc(C(F)(F)F)c1)Nc1ccc(-c2ccc(F)cc2)cc1-c1nnn[nH]1 [Compound 3-16, N-(3,5-Bis-trifluoromethyl-phenyl)-N′-[4′-fluoro-3-(1H-tetrazol-5-yl)-biphenyl-4-yl]-urea]",251 to 253
16,"O=C(Nc1ccc(F)c(C(F)(F)F)c1)Nc1ccc(-c2ccc(F)cc2)cc1-c1nnn[nH]1 [Compound 3-17, N-(4-Fluoro-3-trifluoromethyl-phenyl)-N′-[4′-fluoro-3-(1H-tetrazol-5-yl)-biphenyl-4-yl]-urea]",253 to 254
17,"O=C(Nc1ccc(-c2ccc(C(F)(F)F)cc2)cc1-c1nnn[nH]1)Nc1ccccc1C(F)(F)F [Compound 3-18, N-(2-Trifluoromethyl-phenyl)-N′-[3-(1H-tetrazol-5-yl)-4′-trifluoromethyl-biphenyl-4-yl]-urea]",240 to 243
18,"O=C(Nc1ccc(-c2ccc(F)cc2)cc1-c1nnn[nH]1)Nc1ccccc1C(F)(F)F [Compound 3-19, N-(2-Trifluoromethyl-phenyl)-N′-[4′-fluoro-3-(1H-tetrazol-5-yl)-biphenyl-4-yl]-urea]",256 to 258
19,"O=C(Nc1ccccc1Br)Nc1ccc(-c2ccc(C(F)(F)F)cc2)cc1-c1nnn[nH]1 [Compound 3-20, N-(2-Bromo-phenyl)-N′-[3-(1H-tetrazol-5-yl)-4′-trifluoromethyl-biphenyl-4-yl]-urea]",242 to 243
20,"O=C(Nc1ccc(-c2ccc(Cl)cc2)cc1-c1nnn[nH]1)Nc1ccccc1C(F)(F)F [Compound 3-21, N-(2-Trifluoromethyl-phenyl)-N′-[4′-chloro-3-(1H-tetrazol-5-yl)-biphenyl-4-yl]-urea]",290 to 292
21,"O=C(Nc1ccccc1Br)Nc1ccc(-c2ccc(Cl)cc2)cc1-c1nnn[nH]1 [Compound 3-22, N-(2-Bromo-phenyl)-N′-[4′-chloro-3-(1H-tetrazol-5-yl)-biphenyl-4-yl]-urea]",255 to 256
22,"O=C(Nc1ccccc1Br)Nc1ccc(-c2ccc(F)cc2)cc1-c1nnn[nH]1 [Compound 3-23, N-(2-Bromo-phenyl)-N′-[4′-fluoro-3-(1H-tetrazol-5-yl)-biphenyl-4-yl]-urea]",256 to 258
23,"O=C(Nc1ccccc1F)Nc1ccc(-c2ccc(C(F)(F)F)cc2)cc1-c1nnn[nH]1 [Compound 3-24, N-(2-Fluoro-phenyl)-N′-[3-(1H-tetrazol-5-yl)-4′-trifluoromethyl-biphenyl-4-yl]-urea]",251 to 252
24,"O=C(Nc1ccccc1F)Nc1ccc(-c2ccc(Cl)cc2)cc1-c1nnn[nH]1 [Compound 3-25, N-(2-Fluoro-phenyl)-N′-[4′-chloro-3-(1H-tetrazol-5-yl)-biphenyl-4-yl]-urea]",257 to 259
25,"O=C(Nc1ccccc1F)Nc1ccc(-c2ccc(F)cc2)cc1-c1nnn[nH]1 [Compound 3-26, N-(2-Fluoro-phenyl)-N′-[4′-fluoro-3-(1H-tetrazol-5-yl)-biphenyl-4-yl]-urea]",263 to 264

# The next lines start with the values.
row,melting point [°C],Structure (SMILES)
1,260 to 262,"Cc1ccc(-c2ccc(NC(=O)Nc3ccccc3F)c(-c3nnn[nH]3)c2)cc1 [Compound 3-27, N-(2-Fluoro-phenyl)-N′-[4′-methyl-3-(1H-tetrazol-5-yl)-biphenyl-4-yl]-urea]"
2,261 to 263,"Cc1ccc(-c2ccc(NC(=O)Nc3ccccc3Cl)c(-c3nnn[nH]3)c2)cc1 [Compound 3-28, N-(2-Chloro-phenyl)-N′-[4′-methyl-3-(1H-tetrazol-5-yl)-biphenyl-4-yl]-urea]"
3,255 to 257,"Cc1ccc(-c2ccc(NC(=O)Nc3ccccc3Br)c(-c3nnn[nH]3)c2)cc1 [Compound 3-29, N-(2-Bromo-phenyl)-N′-[4′-methyl-3-(1H-tetrazol-5-yl)-biphenyl-4-yl]-urea]"
4,259 to 261,"Cc1ccc(-c2ccc(NC(=O)Nc3ccccc3C(F)(F)F)c(-c3nnn[nH]3)c2)cc1 [Compound 3-30, N-(2-Trifluoromethyl-phenyl)-N′-[4′-methyl-3-(1H-tetrazol-5-yl)-biphenyl-4-yl]-urea]"
5,254 to 255,"O=C(Nc1ccccc1Cl)Nc1ccc(-c2ccc(C(F)(F)F)cc2)cc1-c1nnn[nH]1 [Compound 3-31, N-(2-Chloro-phenyl)-N′-[3-(1H-tetrazol-5-yl)-4′-trifluoromethyl-biphenyl-4-yl]-urea]"
6,255 to 257,"O=C(Nc1ccccc1Cl)Nc1ccc(-c2ccc(Cl)cc2)cc1-c1nnn[nH]1 [Compound 3-32, N-(2-Chloro-phenyl)-N′-[4′-chloro-3-(1H-tetrazol-5-yl)-biphenyl-4-yl]-urea]"
7,255 to 257,"O=C(Nc1ccccc1Cl)Nc1ccc(-c2ccc(F)cc2)cc1-c1nnn[nH]1 [Compound 3-33, N-(2-Chloro-phenyl)-N′-[4′-fluoro-3-(1H-tetrazol-5-yl)-biphenyl-4-yl]-urea]"
8,200 to 201,"COc1ccc(-c2ccc(NC(=O)Nc3cc(Cl)cc(Cl)c3)c(-c3nnn[nH]3)c2)cc1 [Compound 3-34, N-(3,5-Dichloro-phenyl)-N′-[4′-methoxy-3-(1H-tetrazol-5-yl)-biphenyl-4-yl]-urea]"
9,238 to 241,"O=C(Nc1cc(F)cc(F)c1)Nc1ccc(-c2ccc(OC(F)(F)F)cc2)cc1-c1nnn[nH]1 [Compound 3-35, N-(3,5-Difluoro-phenyl)-N′-[3-(1H-tetrazol-5-yl)-4′-trifluoromethoxy-biphenyl-4-yl]-urea]"
10,224 to 225,"O=C(Nc1cc(Cl)cc(Cl)c1)Nc1ccc(-c2ccc(OC(F)(F)F)cc2)cc1-c1nnn[nH]1 [Compound 3-36, N-(3,5-Dichloro-phenyl)-N′-[3-(1H-tetrazol-5-yl)-4′-trifluoromethoxy-biphenyl-4-yl]-urea]"
11,238 to 240,"O=C(Nc1cc(C(F)(F)F)cc(C(F)(F)F)c1)Nc1ccc(-c2ccc(OC(F)(F)F)cc2)cc1-c1nnn[nH]1 [Compound 3-37, N-(3,5-Bis-trifluoromethyl-phenyl)-N′-[3-(1H-tetrazol-5-yl)-4′-trifluoromethoxy-biphenyl-4-yl]-urea]"
12,255 to 257,"O=C(Nc1cc(F)cc(F)c1)Nc1ccc(-c2cccc(C(F)(F)F)c2)cc1-c1nnn[nH]1 [Compound 3-38, N-(3,5-Difluoro-phenyl)-N′-[3-(1H-tetrazol-5-yl)-3′-trifluoromethyl-biphenyl-4-yl]-urea]"

# From patent US20070293553A1, “Diphenylurea Derivatives Useful As Potassium Channel Activators” (priority 2004, published 2007)
